Assays:
[1] = target: DNA polymerase I (Escherichia coli, UniProt P00582); conditions: 90 minute time point; 5.4 Kb plasmid, 15° C., 3H-dGTP counting
Procedure: At each time point of interest, 2 μl from the reaction mixture were withdrawn, spotted on glass fiber filters (GF/C), washed once with 10% trichloroacetic acid (TCA) and twice with 5% TCA, and with alcohol and was thereafter dried. The filters were loaded to a liquid scintillation counter for measurements of the progression of the polymerase reaction and the relative level of incorporation.

[2] = target: T1, rTh polymerase (Thermus thermophilus, UniProt P52028); test: PCR polymerase assay of modified nucleotide as substrate in place of dTTP; assay type: biochemical; conditions: typical PCR conditions, Taq, Vent, Pfu and rTh polymerases tested
T1 construct: purchased
Excerpt: The modified nucleotides described above were tasted in polymerase assays to determine their compatibility as substrates for polymerase reactions. The modified nucleotide Compound 7 (modified dUTP), served as a substrate in place of deoxythymidinetriphosphate, dTTP, for thermostable DNA polymerases using typical PCR conditions. Commercially available thermostable DNA polymerases from […] were used in the assays: Taq from Thermus aquaticus, Vent from Thermococcus litoralis, Pfu from Pyrococcus furiosus, and rTh from Thennus thennophilus.

DNA polymerase I, sequence (P00582 whole entry): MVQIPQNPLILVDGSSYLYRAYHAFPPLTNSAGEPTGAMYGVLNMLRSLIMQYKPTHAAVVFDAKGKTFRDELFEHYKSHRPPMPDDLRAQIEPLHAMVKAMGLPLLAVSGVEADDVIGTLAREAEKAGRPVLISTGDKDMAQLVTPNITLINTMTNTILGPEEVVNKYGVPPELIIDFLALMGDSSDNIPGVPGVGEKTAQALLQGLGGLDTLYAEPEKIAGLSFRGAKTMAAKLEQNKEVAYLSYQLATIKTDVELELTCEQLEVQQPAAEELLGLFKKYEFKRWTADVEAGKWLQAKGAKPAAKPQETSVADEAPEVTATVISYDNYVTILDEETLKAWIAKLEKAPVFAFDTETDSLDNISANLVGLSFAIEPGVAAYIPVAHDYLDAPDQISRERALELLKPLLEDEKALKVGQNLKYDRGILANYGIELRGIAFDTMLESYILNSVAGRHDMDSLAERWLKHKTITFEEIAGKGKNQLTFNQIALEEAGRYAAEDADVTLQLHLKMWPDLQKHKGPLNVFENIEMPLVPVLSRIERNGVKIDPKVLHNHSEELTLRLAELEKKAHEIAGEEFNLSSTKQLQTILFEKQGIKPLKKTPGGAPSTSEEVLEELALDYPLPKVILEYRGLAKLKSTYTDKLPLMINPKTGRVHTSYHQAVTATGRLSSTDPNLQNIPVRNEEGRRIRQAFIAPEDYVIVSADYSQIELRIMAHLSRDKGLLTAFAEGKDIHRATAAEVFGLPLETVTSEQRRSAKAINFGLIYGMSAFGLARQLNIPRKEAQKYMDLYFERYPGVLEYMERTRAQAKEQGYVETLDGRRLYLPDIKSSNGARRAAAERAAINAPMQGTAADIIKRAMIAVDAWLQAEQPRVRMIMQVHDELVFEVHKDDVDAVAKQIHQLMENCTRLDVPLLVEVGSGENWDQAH
T1 sequence (P52028 whole entry): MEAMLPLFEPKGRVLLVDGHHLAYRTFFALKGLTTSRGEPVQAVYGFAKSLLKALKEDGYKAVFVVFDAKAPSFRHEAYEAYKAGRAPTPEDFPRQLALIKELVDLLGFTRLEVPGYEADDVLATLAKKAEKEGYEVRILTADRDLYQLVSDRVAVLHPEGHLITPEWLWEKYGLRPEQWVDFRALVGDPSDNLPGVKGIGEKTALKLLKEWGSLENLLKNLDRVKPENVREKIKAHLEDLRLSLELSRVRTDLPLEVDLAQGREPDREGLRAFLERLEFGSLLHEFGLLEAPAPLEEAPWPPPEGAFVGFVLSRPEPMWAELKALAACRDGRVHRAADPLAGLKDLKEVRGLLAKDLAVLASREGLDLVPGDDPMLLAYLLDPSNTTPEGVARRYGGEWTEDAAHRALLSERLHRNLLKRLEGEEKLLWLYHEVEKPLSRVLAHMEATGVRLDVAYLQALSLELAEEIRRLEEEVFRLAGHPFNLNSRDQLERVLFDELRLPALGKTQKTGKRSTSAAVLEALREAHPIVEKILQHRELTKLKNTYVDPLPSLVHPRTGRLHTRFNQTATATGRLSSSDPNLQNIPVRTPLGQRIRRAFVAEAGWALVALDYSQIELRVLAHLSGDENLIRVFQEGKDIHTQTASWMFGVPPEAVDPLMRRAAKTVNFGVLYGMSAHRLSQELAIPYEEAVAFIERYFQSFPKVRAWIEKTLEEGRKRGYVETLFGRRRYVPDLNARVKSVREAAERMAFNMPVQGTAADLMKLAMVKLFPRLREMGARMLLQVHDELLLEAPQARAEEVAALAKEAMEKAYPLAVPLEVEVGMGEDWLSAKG

| Compound | relative levels of incorporation of the modified deoxynucleotides [1] | incorporation into PCR product as polymerase substrate [2] |
| --- | --- | --- |
| NCCCCCCNc1ncnc2c1ncn2[C@H]1C[C@H](O)[C@@H](COP(=O)(O)OP(=O)(O)OP(=O)(O)O)O1 [N^6-aminohexyl dATP, reference compound] | 70% | – |
| urocanic acid modified dCTP [Compound 11] | 44% | – |
| urocanic acid modified dUTP [Compound 8] | 54% | – |
| NC/C=C/c1cn(C2CC(O)C(COP(=O)(O)OP(=O)(O)OP(=O)(O)O)O2)c(=O)[nH]c1=O (stereo not shown) [Compound 7, 5′-triphosphate-5-(3-aminopropen-1-yl)deoxyuridine] | – | incorporation into a 561 base pair product only with rTh polymerase |

Reference: US8680062B2, “System for delivering therapeutic agents into living cells and cells nuclei” (Deliversir Ltd., priority 2004, dated 2014)
